Measured values taken from patent US20260242419A1, “A CYCLIC PEPTIDE FOR TRAPPING INTERLEUKIN-1 BETA” (Merck Sharp & Dohme LLC, priority 2023, published 2026).
pIC50: −log10 of the molar value. Where two headings read alike, the source gives them in different places. Starred links: 1 amine or outer side, 2 acyl side, 3 side chain; linkers in the order of their positions; H or OH if unused. Non-standard residues stand in square brackets, D forms with d. Residues, ends and D or L forms follow the SMILES beside them. dPro(4R-(4-pyridylmethyl)) = O=C(O)[C@H]1C[C@@H](Cc2ccncc2)CN1; Trp(βS-Me,4-F) = C[C@@H](c1c[nH]c2cccc(F)c12)[C@H](N)C(=O)O; Bip(4'-COOH) = N[C@@H](Cc1ccc(-c2ccc(C(=O)O)cc2)cc1)C(=O)O; Ala(1-bicyclo(1.1.1)pentyl) = N[C@@H](CC12CC(C1)C2)C(=O)O; dPro(4R-Bzl(4-F)) = O=C(O)[C@H]1C[C@@H](Cc2ccc(F)cc2)CN1; dPro(3S-(4-F-Bn)) = O=C(O)[C@@H]1NCC[C@@H]1Cc1ccc(F)cc1; Phe(2-Cl,4-COOH) = N[C@@H](Cc1ccc(C(=O)O)cc1Cl)C(=O)O; Ala(morpholin-4-yl) = N[C@@H](CN1CCOCC1)C(=O)O; Ala(piperazin-1-yl) = N[C@@H](CN1CCNCC1)C(=O)O; Ala(pyrimidin-5-yl) = N[C@@H](Cc1cncnc1)C(=O)O; Phe(4-COOH) = N[C@@H](Cc1ccc(C(=O)O)cc1)C(=O)O; X44 = CC(=O)N1CCN(C[C@H](N[*:1])C(=O)[*:2])CC1; Pro(cis-4-F) = O=C(O)[C@@H]1C[C@H](F)CN1; Ala(4-THP) = N[C@@H](CC1CCOCC1)C(=O)O; AEF = NCCOc1ccc(C[C@H](N)C(=O)O)cc1; X10 = C[C@@](CCN)(N[*:1])C(=O)[*:2]; cisHyp = O=C(O)[C@@H]1C[C@H](O)CN1; d(αMeD) = C[C@@](N)(CC(=O)O)C(=O)O; 4Pal = N[C@@H](Cc1ccncc1)C(=O)O; aThr = C[C@H](O)[C@H](N)C(=O)O; αMeD = C[C@](N)(CC(=O)O)C(=O)O; d(αMeS) = C[C@@](N)(CO)C(=O)O; Dab = NCC[C@H](N)C(=O)O; Aib = CC(C)(N)C(=O)O

Molecular target: T1, IL-1β (Homo sapiens, UniProt P01584)
T1 construct: purchased BioLegend 579404
T1 sequence (P01584 117-269): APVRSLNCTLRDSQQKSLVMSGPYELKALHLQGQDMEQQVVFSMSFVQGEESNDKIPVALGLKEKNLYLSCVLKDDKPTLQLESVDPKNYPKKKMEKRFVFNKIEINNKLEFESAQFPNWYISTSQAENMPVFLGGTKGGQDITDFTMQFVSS
Experiment: IL-6 assay in MRC5 cells: inhibition of IL-1β induced IL-6 secretion (AlphaLISA)
Assay type: cell-based
Settings: inhibition of IL-1β induced IL-6 secretion in MRC5 cells, read-out: MRC5 IC50
Procedure, shortened: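 Compound was pre-incubated 1 h at ambient temperature with recombinant human IL-1β at 2λ EC80 before adding human lung fibroblast MRC5 cells (3000/well) in EMEM with 0.025% BSA. After overnight culture at 37 °C, 5% CO2, secreted IL-6 in conditioned medium was measured by AlphaLISA; IC50 from 4-parameter logistic fits.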

CC(=O)NCCOc1ccc(C[C@@H]2NC(=O)[C@H]3[C@@H](Cc4ccc(F)cc4)CCN3C(=O)CNC(=O)[C@H](CCN)NC(=O)[C@H](CCC(N)=O)NC(=O)[C@H](Cc3cncnc3)NC(=O)[C@@](C)(CC(=O)O)NC(=O)[C@H](Cc3c[nH]c4ccccc34)NC(=O)[C@H](CO)NC(=O)C(C)(C)NC(=O)[C@H]([C@@H](C)c3c[nH]c4cccc(F)c34)NC(=O)[C@@H]3C[C@H](F)CN3C(=O)CNC(=O)[C@H](Cc3ccc(C(=O)O)cc3)NC(=O)[C@H](Cc3ccncc3)NC2=O)cc1 [Example 369] (cyclo([AEF](Ac)[4Pal][Phe(4-COOH)]G[Pro(cis-4-F)][Trp(βS-Me,4-F)][Aib]SW[d(αMeD)][Ala(pyrimidin-5-yl)]Q[Dab]G[dPro(3S-(4-F-Bn))]))
pIC50: 10.68

C[C@@H](c1c[nH]c2cccc(F)c12)[C@@H]1NC(=O)[C@@H]2C[C@H](F)CN2C(=O)CNC(=O)[C@H](Cc2ccc(C(=O)O)cc2)NC(=O)[C@H](Cc2ccncc2)NC(=O)[C@H](Cc2ccc(-c3ccc(C(=O)O)cc3)cc2)NC(=O)[C@H]2C[C@@H](Cc3ccc(F)cc3)CN2C(=O)CNC(=O)[C@H](CCN)NC(=O)[C@H](CCC(N)=O)NC(=O)[C@H](Cc2cncnc2)NC(=O)C(C)(C)NC(=O)[C@H](Cc2c[nH]c3ccccc23)NC(=O)[C@H](CO)NC(=O)[C@](C)(CCN)NC1=O [Example 129] (cyclo([Bip(4'-COOH)][4Pal][Phe(4-COOH)]G[Pro(cis-4-F)][Trp(βS-Me,4-F)][X10]SW[Aib][Ala(pyrimidin-5-yl)]Q[Dab]G[dPro(4R-Bzl(4-F))]))
pIC50: 10.72

C[C@@H](c1c[nH]c2cccc(F)c12)[C@@H]1NC(=O)[C@@H]2C[C@H](O)CN2C(=O)CNC(=O)[C@H](Cc2ccc(C(=O)O)cc2)NC(=O)[C@H](Cc2ccncc2)NC(=O)[C@H](Cc2ccc(-c3ccc(C(=O)O)cc3)cc2)NC(=O)[C@H]2C[C@@H](Cc3ccncc3)CN2C(=O)CNC(=O)[C@H](CCN)NC(=O)[C@H](CCC(N)=O)NC(=O)[C@H](CC2CCOCC2)NC(=O)[C@](C)(CC(=O)O)NC(=O)[C@H](Cc2c[nH]c3ccccc23)NC(=O)[C@H](CO)NC(=O)C(C)(C)NC1=O [Example 201] (cyclo([Bip(4'-COOH)][4Pal][Phe(4-COOH)]G[cisHyp][Trp(βS-Me,4-F)][Aib]SW[αMeD][Ala(4-THP)]Q[Dab]G[dPro(4R-(4-pyridylmethyl))]))
pIC50: 10.72

C[C@H](O)[C@@H]1NC(=O)[C@@](C)(CC(=O)O)NC(=O)[C@H](Cc2c[nH]c3ccccc23)NC(=O)[C@H](CO)NC(=O)C(C)(C)NC(=O)[C@H]([C@@H](C)c2c[nH]c3cccc(F)c23)NC(=O)[C@@H]2C[C@H](F)CN2C(=O)CNC(=O)[C@H](Cc2ccc(C(=O)O)cc2Cl)NC(=O)[C@H](Cc2ccncc2)NC(=O)[C@H](Cc2ccc(-c3ccc(C(=O)O)cc3)cc2)NC(=O)[C@H]2C[C@@H](Cc3ccncc3)CN2C(=O)CNC(=O)[C@H](CCN)NC(=O)[C@H](CCC(N)=O)NC1=O [Example 356] (cyclo([Bip(4'-COOH)][4Pal][Phe(2-Cl,4-COOH)]G[Pro(cis-4-F)][Trp(βS-Me,4-F)][Aib]SW[d(αMeD)][aThr]Q[Dab]G[dPro(4R-(4-pyridylmethyl))]))
pIC50: 10.96

C[C@@H](c1c[nH]c2cccc(F)c12)[C@@H]1NC(=O)[C@@H]2C[C@H](F)CN2C(=O)CNC(=O)[C@H](Cc2ccc(C(=O)O)cc2)NC(=O)[C@H](Cc2ccncc2)NC(=O)[C@H](Cc2ccc(-c3ccc(C(=O)O)cc3)cc2)NC(=O)[C@H]2C[C@@H](Cc3ccc(F)cc3)CN2C(=O)CNC(=O)[C@H](CO)NC(=O)[C@H](CCC(N)=O)NC(=O)[C@H](CN2CCNCC2)NC(=O)C(C)(C)NC(=O)[C@H](Cc2c[nH]c3ccccc23)NC(=O)[C@H](CCC(=O)O)NC(=O)C(C)(C)NC1=O [Example 122] (cyclo([Bip(4'-COOH)][4Pal][Phe(4-COOH)]G[Pro(cis-4-F)][Trp(βS-Me,4-F)][Aib]EW[Aib][Ala(piperazin-1-yl)]QSG[dPro(4R-Bzl(4-F))]))
pIC50: 10.72

C[C@@H](c1c[nH]c2cccc(F)c12)[C@@H]1NC(=O)[C@@H]2C[C@H](F)CN2C(=O)CNC(=O)[C@H](Cc2ccc(C(=O)O)cc2)NC(=O)[C@H](CC23CC(C2)C3)NC(=O)[C@H](Cc2ccc(-c3ccc(C(=O)O)cc3)cc2)NC(=O)[C@H]2C[C@@H](Cc3ccc(F)cc3)CN2C(=O)CNC(=O)[C@H](CCN)NC(=O)[C@H](CCC(N)=O)NC(=O)[C@H](CN2CCOCC2)NC(=O)[C@@](C)(CO)NC(=O)[C@H](Cc2c[nH]c3ccccc23)NC(=O)[C@H](CO)NC(=O)C(C)(C)NC1=O [Example 170] (cyclo([Bip(4'-COOH)][Ala(1-bicyclo(1.1.1)pentyl)][Phe(4-COOH)]G[Pro(cis-4-F)][Trp(βS-Me,4-F)][Aib]SW[d(αMeS)][Ala(morpholin-4-yl)]Q[Dab]G[dPro(4R-Bzl(4-F))]))
pIC50: 10.82

CC(=O)N1CCN(C[C@@H]2NC(=O)C(C)(C)NC(=O)[C@H](Cc3c[nH]c4ccccc34)NC(=O)[C@H](CCC(=O)O)NC(=O)C(C)(C)NC(=O)[C@H]([C@@H](C)c3c[nH]c4cccc(F)c34)NC(=O)[C@@H]3C[C@H](F)CN3C(=O)CNC(=O)[C@H](Cc3ccc(C(=O)O)cc3)NC(=O)[C@H](Cc3ccncc3)NC(=O)[C@H](Cc3ccc(-c4ccc(C(=O)O)cc4)cc3)NC(=O)[C@H]3C[C@@H](Cc4ccc(F)cc4)CN3C(=O)CNC(=O)[C@H](CO)NC(=O)[C@H](CCC(N)=O)NC2=O)CC1 [Example 271] (cyclo([Bip(4'-COOH)][4Pal][Phe(4-COOH)]G[Pro(cis-4-F)][Trp(βS-Me,4-F)][Aib]EW[Aib][X44]QSG[dPro(4R-Bzl(4-F))]))
pIC50 (compound pre-incubated 1 hour with recombinant human IL-1β): 10.64
